Assay [1] in a line: Tested for binding affinity against delta2 opioid receptor using [3H]DSLET as a radioligand in the guinea pig brain membranes.
The nature of assay [2]: Tested for binding affinity against delta1 opioid receptor using [3H]-DPDPE as a radioligand in the guinea pig brain membranes.

This passage reports Ki results from BindingDB's records for doi:10.1021/jm00008a012 (University of Minnesota, 1995).

Take `O=C(CBr)Nc1cccc(Cn2c3c(c4ccccc42)C[C@@]2(O)C4Cc5ccc(O)c6c5C2(CCN4CC2CC2)[C@H]3O6)c1` (stereo partly drawn) [1N-{3-[22-cyclopropylmethyl-2,16-dihydroxy-14-oxa-11,22-diazaheptacyclo[13.9.1.01,13.02,21.04,12.05,10.019,25]pentacosa-4(12),5(10),6,8,15,17,19(25)-heptaen-11-ylmethyl]phenyl}-2-bromoacetamide]: the results for the Ki in assay [1] and in assay [2] were 0.038 nM and 0.019 nM, respectively.
In the case of `Oc1ccc2c3c1O[C@H]1c4c(c5ccccc5n4Cc4ccccc4N=C=S)C[C@@]4(O)C(C2)N(CC2CC2)CCC314` (stereo partly drawn) [22-cyclopropylmethyl-11-(2-isothiocyanatobenzyl)-14-oxa-11,22-diazaheptacyclo[13.9.1.01,13.02,21.04,12.05,10.019,25]pentacosa-4(12),5(10),6,8,15,17,19(25)-heptaene-2,16-diol], the Ki in assay [1] stood at 3.6 nM; in assay [2] it was 2 nM.
As for `Oc1ccc2c3c1O[C@H]1c4c(c5ccccc5n4Cc4cccc(N=C=S)c4)C[C@@]4(O)C(C2)N(CC2CC2)CCC314` (stereo partly drawn) [22-cyclopropylmethyl-11-(3-isothiocyanatobenzyl)-14-oxa-11,22-diazaheptacyclo[13.9.1.01,13.02,21.04,12.05,10.019,25]pentacosa-4(12),5(10),6,8,15,17,19(25)-heptaene-2,16-diol], the Ki turned out to be 7 nM in assay [1] and 4.2 nM in assay [2].
As to `Oc1ccc2c3c1O[C@H]1c4c(c5ccccc5n4Cc4ccc(N=C=S)cc4)C[C@@]4(O)C(C2)N(CC2CC2)CCC314` (stereo partly drawn) [22-cyclopropylmethyl-11-(4-isothiocyanatobenzyl)-14-oxa-11,22-diazaheptacyclo[13.9.1.01,13.02,21.04,12.05,10.019,25]pentacosa-4(12),5(10),6,8,15,17,19(25)-heptaene-2,16-diol], the Ki in assay [1] amounted to 5 nM; in assay [2] it was 5.3 nM.
